In PubChem BioAssay (NCI):
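These data come from cells grown in 96-well plates and exposed to compound for 48 hours at five concentrations. Definition used: TGI = concentration required for complete inhibition of growth.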

Key:
Test in all cases: DTP human tumour cell line panel, 48 h
SNB-19 CNS = tested on: SNB-19 CNS
NCI-H23 lung = tested on: NCI-H23 lung
DU-145 prostate = tested on: DU-145 prostate
SK-MEL-2 melanoma = tested on: SK-MEL-2 melanoma
NCI-H460 lung = tested on: NCI-H460 lung
U251 CNS = tested on: U251 CNS
ACHN renal = tested on: ACHN renal
A498 renal = tested on: A498 renal
HCT-116 colon = tested on: HCT-116 colon
MDA-MB-435 = tested on: MDA-MB-435
NCI-H226 lung = tested on: NCI-H226 lung
HT29 colon = tested on: HT29 colon
PC-3 prostate = tested on: PC-3 prostate
UO-31 renal = tested on: UO-31 renal
K-562 leukemia = tested on: K-562 leukemia
UACC-62 melanoma = tested on: UACC-62 melanoma
HCT-15 colon = tested on: HCT-15 colon
HOP-92 NSCLC = tested on: HOP-92 NSCLC
RXF 393 renal = tested on: RXF 393 renal
TK-10 renal = tested on: TK-10 renal
MDA-MB-231 breast = tested on: MDA-MB-231 breast
RPMI-8226 leukemia = tested on: RPMI-8226 leukemia
SK-MEL-28 melanoma = tested on: SK-MEL-28 melanoma
HOP-62 NSCLC = tested on: HOP-62 NSCLC
CCRF-CEM leukemia = tested on: CCRF-CEM leukemia
MDA-N = tested on: MDA-N
OVCAR-4 ovarian = tested on: OVCAR-4 ovarian
SN12C renal = tested on: SN12C renal
OVCAR-3 ovarian = tested on: OVCAR-3 ovarian
SK-OV-3 ovarian = tested on: SK-OV-3 ovarian
MOLT-4 leukemia = tested on: MOLT-4 leukemia
CAKI-1 renal = tested on: CAKI-1 renal
SW-620 colon = tested on: SW-620 colon
LOX IMVI melanoma = tested on: LOX IMVI melanoma
SF-268 CNS = tested on: SF-268 CNS
EKVX NSCLC = tested on: EKVX NSCLC
NCI/ADR-RES ovarian = tested on: NCI/ADR-RES ovarian
HS 578T breast = tested on: HS 578T breast
SR leukemia = tested on: SR leukemia
SNB-75 CNS = tested on: SNB-75 CNS
A549 NSCLC = tested on: A549 NSCLC
OVCAR-5 ovarian = tested on: OVCAR-5 ovarian
786-0 renal = tested on: 786-0 renal
BT-549 breast = tested on: BT-549 breast
SF-295 CNS = tested on: SF-295 CNS
KM12 colon = tested on: KM12 colon
T-47D breast = tested on: T-47D breast
M14 melanoma = tested on: M14 melanoma
IGROV1 ovarian = tested on: IGROV1 ovarian
SF-539 CNS = tested on: SF-539 CNS
OVCAR-8 ovarian = tested on: OVCAR-8 ovarian
UACC-257 melanoma = tested on: UACC-257 melanoma
HL-60(TB) leukemia = tested on: HL-60(TB) leukemia
COLO 205 colon = tested on: COLO 205 colon
MALME-3M melanoma = tested on: MALME-3M melanoma

Measured: TGI

Cc1nn(C(=O)c2ccccc2O)c2c1C(c1ccco1)SC(N)=N2 (stereo not given)
6.8 µM: HOP-62 NSCLC
6 µM: UACC-62 melanoma
8.16 µM: NCI/ADR-RES ovarian
> 10 µM: all other assays above
